# Results from US20040029928A1, “Novel propenohydroxamic acid derivatives” (priority 2000, published 2004).
# pIC50: −log10 of the molar value.
# Legend:
# [1] = biological target: T1, TACE (crude extracted protein from membrane fraction of THP-1 cells) (Homo sapiens, UniProt P78536); test: In vitro TACE inhibitory activity (fluorogenic peptide substrate); assay type: biochemical; settings: crude TACE 10 μg/mL, substrate 20 μM, room temperature, at least 4 hours
# T1 construct: The supernatant was collected, which was provided for use as a TACE crude extract; endogenous in cells; host or cells: THP-1 cells stimulated with LPS, silica and hydroxyurea; membrane fraction solubilised with 1% Triton X-100
# Method: Test 1 (In Vitro TACE Inhibitory Activity)
# (1) Crude Extraction of TACE from THP-1 Cell Membrane
# To THP-1 cells (cell density: 2×10^6/mL) suspended in RPMI 1640 medium containing 1% FBS were added LPS (E. coli 055:B55, final concentration: 1 pg/mL), silica (0.014 μm, final concentration: 50 μg/mL) and hydroxyurea (final concenration: 2 mM), followed by cultivation at 37° C. for 16 hours under 5%-CO2 conditions. The resulting cells were then washed once with RPMI 1640 medium free of FBS. The cells were suspended in 3 times the pellet volume of Solution A (10 mM sodium phosphate (pH 7.4), 1 mM MgCl2, 30 mM NaCl, 0.02% NaN3, 5 μM PMSF (phenyl methyl sulfonyl fluoride)). The cells were ground by a Polytron homogenizer (5 sec×5 times, ice cooling for 1 to 2 minutes each time). The homogenate solution was stacked over 41% sucrose-Solution A, followed by centrifugation (150,000 g×1 hour). After centrifugation, the intermediate layer was collected and diluted with 4 volumes of Solution A, followed by centrifugation (150,000 g×20 min). A sufficient amount of a solubilizing solution (1%-Triton X-100-A solution) was added (protein concentration: 1 mg/mL) and the mixture was stirred (4° C.×1 hour). Stirring was followed by centrifugation (100,000 g×30 min, 4° C.). The supernatant was collected, which was provided for use as a TACE crude extract.
# (2) Measurement of TACE Inhibitory Activity
# TACE (crude extracted protein from membrane fraction of THP-1 cells, final concentration: 10 μg/mL), each of test compounds (DMSO final concentration: 1%) shown in Table 1 and an incubate solution (50 mM Tris-HCl (pH 7.4), 5 mM CaCl2, 0.002% NaN3, 0.002% Brij 35) was added to a 96-well black plate. After pre-incubation at room temperature for 30 minutes, a substrate (N-methylanthranilyl-LAQAVRSK(DNP)rr-NH2: product of PEPTIDE INSTITUTE, INC., final concentration: 20 μM) was added, followed by incubation at room temperature for at least 4 hours. The fluorescence intensity was measured using POLAR STAR (Ex: 340 nm, Em: 430 nm) and from it, TACE inhibitory activity (IC50 value) was calculated.
# [2] = biological target: T2, MMP-1 (Homo sapiens, UniProt P03956); test: Measurement of MMP-1 inhibitory activity; assay type: biochemical; settings: MMP-1 (Cosmo Bio), fluorogenic substrate
# T2 construct: purchased Cosmo Bio Co
# T2 sequence (P03956 100-469): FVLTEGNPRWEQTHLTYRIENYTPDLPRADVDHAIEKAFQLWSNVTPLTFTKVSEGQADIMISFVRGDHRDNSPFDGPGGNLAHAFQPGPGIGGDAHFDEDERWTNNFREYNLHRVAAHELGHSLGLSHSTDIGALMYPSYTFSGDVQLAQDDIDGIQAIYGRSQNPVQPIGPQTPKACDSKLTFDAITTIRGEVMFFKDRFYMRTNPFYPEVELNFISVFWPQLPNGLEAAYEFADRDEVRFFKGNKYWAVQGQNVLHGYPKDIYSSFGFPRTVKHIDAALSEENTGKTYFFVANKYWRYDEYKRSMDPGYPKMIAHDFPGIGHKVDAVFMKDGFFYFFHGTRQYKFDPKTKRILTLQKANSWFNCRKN
# Method: Test 2 (Measurement of MMP-1 Inhibitory Activity)
# MMP-1 inhibitory activity (IC50 value) was measured in accordance with the above-described measuring method of TACE inhibitory activity by using MMP-1 (product of Cosmo Bio Co.) and, as a substrate, 7-methoxycoumarin-4-yl-acetyl-PLGL-[N^3-(2,4-dinitrophenyl)2,3-diaminopropionyl]-AR—NH2 (product of Peptide Institute Inc.). The fluorescence intensity was measured using POLAR STAR (Ex: 340 nm, Em: 405 nm).
# [3] = tested on: secretion of TNF-α, THP-1 cells; test: Inhibitory activity against secretion of TNF-α in LPS-stimulated THP-1 cells (ELISA); assay type: cell-based; settings: Homo sapiens, LPS 100 ng/mL, 37° C., 4 hours, ELISA of supernatant
# Method: Test 3 (Measurement of Inhibitory Activity Against on of TNF-α)
# To THP-1 cells (5×10^5 mL) suspended in RPMI 1640 medium containing 10% FBS were added LPS (100 ng/mL) and a medicament of various concentrations (DMSO final concentration: 0.1%), followed by incubation at 37° C. for 4 hours under 5%-CO2 conditions. The TNF-α in the cultured supernatant was analyzed by ELISA, whereby inhibitory activity (IC50) against secretion of TNF-α was calculated.
# T1 sequence (P78536 215-824): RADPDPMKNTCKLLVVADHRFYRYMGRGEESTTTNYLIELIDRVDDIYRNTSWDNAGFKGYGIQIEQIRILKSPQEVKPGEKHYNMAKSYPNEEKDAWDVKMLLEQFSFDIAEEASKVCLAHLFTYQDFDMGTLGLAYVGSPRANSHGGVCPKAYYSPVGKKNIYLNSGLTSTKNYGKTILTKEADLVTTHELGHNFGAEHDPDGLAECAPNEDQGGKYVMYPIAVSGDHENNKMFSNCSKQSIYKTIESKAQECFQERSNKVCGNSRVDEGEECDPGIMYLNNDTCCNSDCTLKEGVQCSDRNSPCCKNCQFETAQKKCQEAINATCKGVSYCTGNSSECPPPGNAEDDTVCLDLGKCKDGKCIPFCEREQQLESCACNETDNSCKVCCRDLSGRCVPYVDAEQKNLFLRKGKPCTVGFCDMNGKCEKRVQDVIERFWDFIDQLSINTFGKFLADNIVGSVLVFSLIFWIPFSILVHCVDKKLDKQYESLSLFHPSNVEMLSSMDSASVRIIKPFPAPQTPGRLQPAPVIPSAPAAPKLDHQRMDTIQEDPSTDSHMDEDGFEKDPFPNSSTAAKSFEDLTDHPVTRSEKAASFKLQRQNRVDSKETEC
Structure (SMILES),melting point [°C],pIC50 [1],pIC50 [2],pIC50 [3]
"CN(c1cccc(/C(=C\C(=O)NO)c2ccccc2)c1)S(=O)(=O)c1ccc([N+](=O)[O-])cc1 [Compound 68, Z-3-[3-[N-(4-Nitrobenzenesulfonyl)-N-methylamino]phenyl]-3-phenylpropenohydroxamic Acid]",153 to 155,7.46,< 5.00,
"COc1ccc(S(=O)(=O)N(c2cccc(/C(=C\C(=O)NO)c3cccnc3)c2)C(C)C)cc1 [Compound 88, E-3-[3-[N-(4-Methoxybenzenesulfonyl)-N-isopropylamino]phenyl]-3-(3-pyridyl)propenohydroxamic acid]",158 to 160,8.19,< 5.00,5.55
"COc1ccc(S(=O)(=O)N(C)c2cccc(/C(=C\C(=O)NO)c3cccnc3)c2)cc1 [Compound 89, E-3-[3-[N-(4-Methoxybenzenesulfonyl)-N-methylamino]phenyl]-3-(3-pyridyl)propenohydroxamic Acid]",,8.15,< 5.00,5.39
"COc1ccc(S(=O)(=O)N(c2cccc(/C(=C\C(=O)NO)c3ccc[n+]([O-])c3)c2)C(C)C)cc1 [Compound 93, E-3-[3-[N-(4-methoxybenzenesulfonyl)-N-isopropylamino]phenyl]-3-(3-pyridyl N-oxide)propenohydroxamic Acid]",,7.89,< 5.00,5.26
"COc1ccc(S(=O)(=O)N(C)c2cccc(/C(=C\C(=O)NO)c3ccccc3)c2)cc1OC [Compound 75, Z-3-[3-[N-(3,4-Dimethoxybenzenesulfonyl)-N-methylamino]phenyl]-3-phenylpropenohydroxamic acid]",98 to 101,7.89,< 5.00,5.19
"COc1ccc(S(=O)(=O)N(C)c2cccc(/C(=C\C(=O)NO)c3ccccc3)c2)cc1 [Compound 62, Z-3-[3-[N-(4-Methoxybenzenesulfonyl)-N-methylamino]phenyl]-3-phenylpropenohydroxamic Acid]",,8.07,< 5.00,
